Laboratory results reported in article PMC12838644, “Dihydrotanshinone as a Natural Product-Based CYP17A1 Lyase Inhibitor for Hyperandrogenic Disorders” (Biomolecules, 2026).

Key:
CYP17A1 17α-hydroxylase = biological target: T1, CYP17A1 17α-hydroxylase (Homo sapiens, UniProt P05093); assay: CYP17A1 17α-hydroxylase activity assay (progesterone to 17OH-progesterone, reconstituted POR/CYP17A1); type: biochemical; conditions: 10 µM (SM extract 10 µg/mL)
T1 sequence (P05093 1-508): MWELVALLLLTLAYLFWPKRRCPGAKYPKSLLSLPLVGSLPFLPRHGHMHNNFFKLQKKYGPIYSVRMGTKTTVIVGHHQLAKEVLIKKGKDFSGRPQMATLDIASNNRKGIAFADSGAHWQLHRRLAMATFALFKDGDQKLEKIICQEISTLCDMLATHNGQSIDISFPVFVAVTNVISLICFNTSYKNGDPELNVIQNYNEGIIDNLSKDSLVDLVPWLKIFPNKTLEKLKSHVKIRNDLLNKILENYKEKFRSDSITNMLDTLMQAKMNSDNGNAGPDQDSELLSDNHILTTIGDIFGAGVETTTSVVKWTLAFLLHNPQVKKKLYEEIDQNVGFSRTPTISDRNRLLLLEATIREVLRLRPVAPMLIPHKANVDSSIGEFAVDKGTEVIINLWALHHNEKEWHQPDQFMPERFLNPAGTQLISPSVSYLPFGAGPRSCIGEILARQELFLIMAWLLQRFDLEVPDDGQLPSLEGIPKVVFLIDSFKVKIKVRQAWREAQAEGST
Method: (§1) Assay of CYP17A1 17α-hydroxylase and 17,20-lyase activities were performed as described previously. The 17α-hydroxylase activity was measured by conversion of progesterone to 17OH-progesterone, while production of DHEA from 17OH-pregnenolone was used for monitoring the 17,20-lyase activity of CYP17A1. In vitro CYP17A1 assays were performed using a liposome system consisting of human p450 oxidoreductase (POR) and CYP17A1 at a ratio of 3:4 (POR: CYP17A1). The final assay mixture consisted of proteins (37.5 nmol POR: 50 nmol CYP17A1), 10 mM MgCl2, 6 mM potassium acetate (KOAc), 0.05 mg/mL DLPC,1 mM reduced Glutathione in 50 mM HEPES-NaOH buffer (pH 7.4), and the reaction volume was 200 μL. The drugs were added to the final mixture and incubated for 1h before the catalytic reaction was initiated by the addition of NADPH to 1 mM final concentration. Radiolabeled [^14C]-progesterone (10,000 cpm in 1 µM) was used as a tracer in each reaction. Steroids were extracted and separated by thin-layer chromatography (TLC) on silica gel (SIL G/UV254) TLC plates (Macherey-Nagel, Oensingen, Switzerland) as previously described.

CYP17A1 17,20-lyase = biological target: T2, CYP17A1 17,20-lyase (Homo sapiens, UniProt P05093); assay: CYP17A1 17,20-lyase activity assay (DHEA from 17OH-pregnenolone, POR, CYP17A1 and cytochrome b5); type: biochemical
T2 sequence (P05093 1-508): T1 sequence (P05093 1-508)
Method: as §1, with “The final assay mixture consisted of proteins (37.5 nmol POR: 50 nmol CYP17A1), 10 mM MgCl2, 6 mM potassium acetate (KOAc), 0.05 mg/mL DLPC,1 mM reduced Glutathione in 50 mM HEPES-NaOH buffer (pH 7.4), and the reaction volume was 200 μL.” left out
In vitro CYP17A1 17,20-lyase activity assays were performed using POR, CYP17A1 and cytochrome b5 as described previously. The final assay mixture consisted of proteins, 10 mM MgCl2, 6 mM KOAc, 0.05 mg/mL DLPC, 1 mM reduced glutathione in 50 mM HEPES-NaOH buffer (pH 7.4), and the reaction volume was 200 μL. The drugs were added to the final mixture and incubated for 1h before the catalytic reaction was initiated by the addition of NADPH to 1 mM final concentration. Radiolabeled [^3H]-17OH-pregnenolone (50,000 cpm in 1 µM) was added as a tracer and the enzyme activity was measured by using the scintillation counter in the water release assay.

CYP21A2 = biological target: T3, CYP21A2 (Homo sapiens, UniProt P08686); assay: CYP21A2 activity assay in transiently transfected HEK-293T cells; type: cell-based; conditions: transfected HEK-293T cells
T3 construct: expressed in transfected cells; host or cells: HEK293 / HEK-293T
T3 sequence (P08686 1-495): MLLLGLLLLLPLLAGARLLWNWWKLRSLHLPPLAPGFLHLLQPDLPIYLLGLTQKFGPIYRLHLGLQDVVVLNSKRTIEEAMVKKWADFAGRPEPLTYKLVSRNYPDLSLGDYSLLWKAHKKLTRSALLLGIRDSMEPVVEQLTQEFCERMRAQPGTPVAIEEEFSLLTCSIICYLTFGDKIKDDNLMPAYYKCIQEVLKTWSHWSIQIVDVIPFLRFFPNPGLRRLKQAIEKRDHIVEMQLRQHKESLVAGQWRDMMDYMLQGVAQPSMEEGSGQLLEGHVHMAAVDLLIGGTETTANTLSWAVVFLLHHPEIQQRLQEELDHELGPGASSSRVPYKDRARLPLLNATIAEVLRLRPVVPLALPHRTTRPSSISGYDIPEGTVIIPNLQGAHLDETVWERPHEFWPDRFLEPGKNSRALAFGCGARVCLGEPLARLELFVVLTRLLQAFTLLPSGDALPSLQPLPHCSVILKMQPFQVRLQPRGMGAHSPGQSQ
Method: Transient transfections were performed using the CYP21A2 WT vector as described previously. HEK293 cells were seeded in six-well plates (3 × 10^5 cells/well). After 24 h, the growth medium was replaced, and cells were transfected using Lipofectamine 2000 (Thermo Fisher Scientific, Bedford, MA, USA) with 12.5 µg of plasmid (plasmid concentration: 1068 µg/mL). Twenty-four hours after transfection, transfected cells were replated in 24-well plates (1.5 × 10^5 cells/well) to ensure homogeneity of the cell population across the wells. Six hours after transfection, 2 mL of fresh medium was replaced, and the cells were cultured for 48 h. Cell growth was examined. […] DMSO was added to the negative control, and 10 µM abiraterone was added to the positive control, and the cells were incubated for 4 h. Functional assays were initiated by adding 1 µM unlabeled progesterone (using 10,000 cpm of [^14C]-progesterone as a tracer). After incubation at 37 °C for 1 h, the culture medium and cells were harvested. Steroids were extracted from the culture medium with ethyl acetate and isooctane (1:1 volume ratio), dried, and dissolved in dichloromethane. Steroids were separated by thin-layer chromatography (TLC), placed on a phosphor screen, and visualized using a Typhoon PhosphorImager FLA-7000 (GE Healthcare Bio-Sciences AB, Uppsala, Sweden). Image intensity was measured and quantified using ImageQuant TL v8 (Cytiva, Marlborough, MA, USA). The CYP21A2 enzyme activity was expressed as relative steroid conversion. Steroids were quantified as a percentage of radioactivity incorporated into […] to the total radioactivity measured in the whole sample and compared between the WT and variants. Cells were collected with trypsin and washed with 1× PBS to quantify the amount of protein. Results were analyzed from three technical replicates. To ensure a similar amount of CYP21A2 in each reaction, a Western blot analysis was performed to normalize the enzyme activity with the relative CYP21A2 expression.

inhibition at 10 µM (CYP17A1 17α-hydroxylase; calculated as 100% − % residual activity, read-out: % Inhibition CYP17A1-OH): 94.7%
Residual 17α-hydroxylase activity (CYP17A1 17α-hydroxylase; % of DMSO control): 5.3%
inhibition at 10 µM (CYP17A1 17,20-lyase; 10 µM (SM extract 10 µg/mL), calculated as 100% − % residual activity, read-out: % Inhibition CYP17A1-Lyase): 69.6%
Residual 17,20-lyase activity (CYP17A1 17,20-lyase; % of DMSO control, 10 µM (SM extract 10 µg/mL)): 30%
Lyase/CYP21A2 Selectivity Index (CYP17A1 17,20-lyase; (% Inhibition Lyase)/(% Inhibition CYP21A2) at 10 µM (SM 10 µg/mL)): 2.34
Lyase/OH Selectivity Index (CYP17A1 17,20-lyase; (% Inhibition Lyase)/(% Inhibition OH) at 10 µM (SM 10 µg/mL)): 0.73
inhibition at 10 µM (CYP21A2; 10 µM (SM extract 10 µg/mL), calculated as 100% − % residual activity, read-out: % Inhibition CYP21A2): 29.8%
Residual CYP21A2 activity (CYP21A2; % of DMSO control, 10 µM): 70%
SMILES: C[C@]12CC[C@H](O)CC1=CC[C@@H]1[C@@H]2CC[C@]2(C)C(c3cccnc3)=CC[C@@H]12 [Abiraterone, abiraterone, reference compound]
